By pIC50 is commonly meant the IC50 on a negative log10 scale, so that one unit is a factor of ten.

pIC50: −log10 of the molar value.

These results are taken from patent US20130116231A1, “TYROSINE KINASE INHIBITORS” (Merck Sharp & Dohme Corp., priority 2010, published 2013).

The target of the test is T1, human c-Met (Homo sapiens, UniProt P08581).
T1 construct: Recombinant GST-tagged cytosolic domains of human c-Met; 6xHis; made in house; host or cells: Sf9 or Sf21 insect cells (baculovirus)
T1 sequence (P08581 956-1390 limits assumed): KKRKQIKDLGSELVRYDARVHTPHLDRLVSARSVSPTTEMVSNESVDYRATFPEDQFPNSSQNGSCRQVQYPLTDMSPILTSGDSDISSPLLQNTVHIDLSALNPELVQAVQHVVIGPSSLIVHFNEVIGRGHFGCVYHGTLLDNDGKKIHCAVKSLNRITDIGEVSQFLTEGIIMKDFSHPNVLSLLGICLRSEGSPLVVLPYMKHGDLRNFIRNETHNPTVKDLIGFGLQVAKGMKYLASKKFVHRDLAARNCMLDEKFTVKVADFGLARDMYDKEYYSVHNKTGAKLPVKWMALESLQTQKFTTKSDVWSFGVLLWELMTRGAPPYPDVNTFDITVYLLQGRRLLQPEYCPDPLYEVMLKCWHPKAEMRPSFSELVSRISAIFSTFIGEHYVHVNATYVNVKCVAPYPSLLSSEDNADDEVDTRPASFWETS
In words: in vitro kinase assay (homogeneous time-resolved tyrosine kinase assay, METKA). The test is classed as biochemical. The note with it: recombinant GST-tagged c-Met cytosolic domain, HTRF, 50 μM MgATP; read-out: Biological Activity (METKA IC50) Activity Code. The source says: Recombinant GST-tagged cytosolic domains of human c-Met and other receptor tyrosine kinases including mouse c-Met, human Ron, KDR, IGFR, EGFR, FGFR, Mer, TrkA and Tie2 are used to determine whether the compounds of the instant invention modulate the enzymatic activities of these kinases.
Soluble recombinant GST-tagged cytosolic domains of c-Met and other receptor tyrosine kinases are expressed in a baculovirus system (Pharmingen) according to a protocol recommended by the manufacturer. The c-DNA encoding each cytosolic domain is subcloned into a baculovirus expression vector (pGcGHLT-A, B or C, Pharmingen) containing an in frame 6× histidine tag and a GST tag. The resulting plasmid construct and BaculoGold baculovirus DNA (Pharmingen) are used to co-transfect Sf9 or Sf21 insect cells. After confirming expression of GST-tagged kinase fusion, a high titer recombinant baculovirus stock is produced, expression conditions are optimized, and a scaled up expression of rat KDR-GST fusion is performed. The fusion kinase is then purified from the insect cell lysate by affinity chromatography using glutathione agarose (Pharmingen). The purified protein is dialyzed against 50% glycerol, 2 mM DTT, 50 mM Tris-HCl (pH 7.4) and stored at −20° C. The protein concentrations of the fusion proteins are determined using Coomassie Plus Protein Assay (Pierce) with BSA as standard.
The kinase activities of c-Met and other kinases are measured using a modified version of the homogeneous time-resolved tyrosine kinase assay described by Park et al. (1999, Anal. Biochem. 269:94-104).
The procedure for determining the potency of a compound to inhibit c-Met kinase comprises the following steps: • 1. Prepare 3-fold serial diluted compound solutions in 100% dimethyl sulfoxide (DMSO) at 20× of the desired final concentrations in a 96 well plate. • 2. Prepare a master reaction mix containing 6.67 mM MgCl2, 133.3 mM NaCl, 66.7 mM Tris-HCl (pH 7.4), 0.13 mg/ml BSA, 2.67 mM dithiothreitol, 0.27 nM recombinant c-Met and 666.7 nM biotinylated synthetic peptide substrate (biotin-ahx-EQEDEPEGDYFEWLE-CONH2) (SEQ.ID.NO.:1). • 3. In a black assay plate, add 2.5 μl of compound solution (or DMSO) and 37.5 μl of master reaction mix per well. Initiate the kinase reaction by adding 10 μl of 0.25 mM MgATP per well. Allow the reactions to proceed for 80 min at room temperature. The final conditions for the reaction are 0.2 nM c-Met, 0.5 μM substrate, 50 μM MgATP, […], 100 mM NaCl, 2 mM DTT, 0.1 mg/ml BSA, 50 mM Tris (pH 7.4) and 5% DMSO. • 4. Stop the kinase reaction with 50 μl of Stop/Detection buffer containing 10 mM EDTA, 25 mM HEPES, 0.1% TRITON X-100, 0.126 μg/ml Eu-chelate labeled anti-phosphotyrosine antibody PY20 (cat. #AD0067, PerkinElmer) and 45 μg/ml Streptavidin-allophycocyanin conjugate (cat. #PJ25S, Prozyme). • 5. Read HTRF signals on a Victor reader (PerkinElmer) in HTRF mode after 60 min. • 6. IC50 is determined by fitting the observed relationship between compound concentration and HTRF signal with a 4-parameter logistic equation. Essentially the same procedure was used to determine the potency of compounds to inhibit mouse c-Met, human Ron, KDR, IGFR, EGFR, FGFR, Mer, TrkA and Tie2 except that the concentration of enzyme varied in individual assays (0.2 nM mouse c-Met; 2.5 nM Ron, 8 nM KDR; 0.24 nM IGFR; 0.24 nM EGFR; 0.14 nM FGFR; 16 nM Mer; 8 nM TrkA; 8 nM Tie2).
In general terms: TR-FRET usually uses a lanthanide donor and a delayed reading to cut background.
In the case of `CC(Oc1ccc2ncccc2c1)c1nn(-c2cccc(Br)c2)ccc1=O` (single isomer, unassigned) [Example 113, 1-(3-bromophenyl)-3-[1-(quinolin-6-yloxy)ethyl]pyridazin-4(1H)-one], the pIC50 was 5.52 to 6.00. To `CC(Oc1ccc2ncccc2c1)c1nn(-c2cccc(Br)c2)ccc1=O` (single isomer, unassigned) [Example 114, 1-(3-bromophenyl)-3-[1-(quinolin-6-yloxy)ethyl]pyridazin-4(1H)-one] belongs 5.52 to 6.00. In the case of `CC(Cc1nn(-c2cnn(C)c2)ccc1=O)c1ccc2ncccc2c1` (single isomer, unassigned) [Example 125, 1-(1-methyl-1H-pyrazol-4-yl)-3-(2-quinolin-6-ylpropyl)pyridazin-4(1H)-one], the pIC50 was above 7.00. For `CC(Cc1nn(-c2cnn(C)c2)ccc1=O)c1ccc2ncccc2c1` (single isomer, unassigned) [Example 126, 1-(1-methyl-1H-pyrazol-4-yl)-3-(2-quinolin-6-ylpropyl)pyridazin-4(1H)-one], the pIC50 was 6.00 to 7.00. To `CC(Oc1nn(-c2cnn(C)c2)ccc1=O)c1ccc2ncccc2c1` (single isomer, unassigned) [Example 138, 1-(1-methyl-1H-pyrazol-4-yl)-3-(1-quinolin-6-ylethoxy)pyridazin-4(1H)-one] belongs 6.00 to 7.00; to `CC(Oc1nn(-c2cnn(C)c2)ccc1=O)c1ccc2ncccc2c1` (single isomer, unassigned) [Example 139, 1-(1-methyl-1H-pyrazol-4-yl)-3-(1-quinolin-6-ylethoxy)pyridazin-4(1H)-one], 6.00 to 7.00; to `COc1cnc2ccc(C(C)Oc3nn(-c4cnn(C)c4)ccc3=O)cc2c1` (single isomer, unassigned) [Example 140, 3-[1-(3-methoxyquinolin-6-yl)ethoxy]-1-(1-methyl-1H-pyrazol-4-yl)pyridazin-4(1H)-one], above 7.00. For the molecule `CCOc1cnc2ccc(C(C)Oc3nn(-c4cnn(C)c4)ccc3=O)cc2c1` (single isomer, unassigned) [Example 141, 3-[1-(3-ethoxyquinolin-6-yl)ethoxy]-1-(1-methyl-1H-pyrazol-4-yl)pyridazin-4(1H)-one], the pIC50 was above 7.00. Consider `CCOc1cnc2ccc(C(C)Oc3nn(-c4cnn(C)c4)ccc3=O)cc2c1` (single isomer, unassigned) [Example 142, 3-[1-(3-ethoxyquinolin-6-yl)ethoxy]-1-(1-methyl-1H-pyrazol-4-yl)pyridazin-4(1H)-one], for which the pIC50 was 5.52 to 6.00. On to `COCCOc1cnc2ccc(C(C)Oc3nn(-c4cnn(C)c4)ccc3=O)cc2c1` (single isomer, unassigned) [Example 143, 3-{1-[3-(2-methoxyethoxy)quinolin-6-yl]ethoxy}-1-(1-methyl-1H-pyrazol-4-yl)pyridazin-4(1H)-one], for which the pIC50 was above 7.00. As to `COCCOc1cnc2ccc(C(C)Oc3nn(-c4cnn(C)c4)ccc3=O)cc2c1` (single isomer, unassigned) [Example 144, 3-{1-[3-(2-methoxyethoxy)quinolin-6-yl]ethoxy}-1-(1-methyl-1H-pyrazol-4-yl)pyridazin-4(1H)-one], the pIC50 is 6.00 to 7.00. On to `COc1ccnc2ccc(C(C)Oc3nn(-c4cnn(C)c4)ccc3=O)cc12` (single isomer, unassigned) [Example 145, 3-[1-(4-methoxyquinolin-6-yl)ethoxy]-1-(1-methyl-1H-pyrazol-4-yl)pyridazin-4(1H)-one], for which the pIC50 is above 7.00. As for `CCn1cc(-n2ccc(=O)c(OC(C)c3ccc4nccc(OC)c4c3)n2)cn1` (single isomer, unassigned) [Example 146, 1-(1-ethyl-1H-pyrazol-4-yl)-3-[1-(4-methoxyquinolin-6-yl)ethoxy]pyridazin-4(1H)-one], the pIC50 is above 7.00. To `Cn1cc(-n2ccc(=O)c(COc3ccc4ncccc4c3)n2)cn1` [Example 1, 1-(1-Methyl-1H-pyrazol-4-yl)-3-[(quinolin-6-yloxy)methyl]pyridazin-4(1H)-one] belongs above 7.00.

In the case of `Cn1cc(-n2ccc(=O)c(COc3cccc4cnccc34)n2)cn1` [Example 2, 3-[(isoquinolin-5-yloxy)methyl]-1-(1-methyl-1H-pyrazol-4-yl)pyridazin-4(1H)-one], the negative-log IC50 (pIC50) is 5.52 to 6.00. In the case of `N#Cc1cccc(-n2ccc(=O)c(COc3ccc4ncccc4c3)n2)c1` [Example 3, 3-{4-oxo-3-[(quinolin-6-yloxy)methyl]pyridazin-1(4H)-yl}benzonitrile], the pIC50 was above 7.00. `N#Cc1cc(F)cc(-n2ccc(=O)c(COc3ccc4ncccc4c3)n2)c1` [Example 4, 3-fluoro-5-{4-oxo-3-[(quinolin-6-yloxy)methyl]pyridazin-1(4H)-yl}benzonitrile]: the pIC50 is above 7.00. As to `N#Cc1ccc(-n2ccc(=O)c(COc3ccc4ncccc4c3)n2)cc1` [Example 5, 4-{4-oxo-3-[(quinolin-6-yloxy)methyl]pyridazin-1(4H)-yl}benzonitrile], the pIC50 is above 7.00. In the case of `N#Cc1cc(Cl)cc(-n2ccc(=O)c(COc3ccc4ncccc4c3)n2)c1` [Example 6, 3-chloro-5-{4-oxo-3-[(quinolin-6-yloxy)methyl]pyridazin-1(4H)-yl}benzonitrile], the pIC50 is above 7.00. Turning to `O=c1ccn(-c2cc(F)cc(F)c2)nc1COc1ccc2ncccc2c1` [Example 7, 1-(3,5-difluorophenyl)-3-[(quinolin-6-yloxy)methyl] pyridazin-4(1H)-one], the pIC50 was above 7.00. For `O=c1ccn(-c2ccc(F)c(F)c2)nc1COc1ccc2ncccc2c1` [Example 8, 1-(3,4-difluorophenyl)-3-[(quinolin-6-yloxy)methyl] pyridazin-4(1H)-one], the pIC50 is above 7.00.

As for `Cn1cc(-n2ccc(=O)c(COc3ccc([N+](=O)[O-])cc3)n2)cn1` [Example 9, 1-(1-methyl-1H-pyrazol-4-yl)-3-[(4-nitrophenoxy)methyl] pyridazin-4(1H)-one], the pIC50 was 5.52 to 6.00.

Turning to `O=c1ccn(-c2cc(F)c(F)c(F)c2)nc1COc1ccc2ncccc2c1` [Example 10, 3-[(quinolin-6-yloxy)methyl]-1-(3,4,5-trifluorophenyl) pyridazin-4(1H)-one], the negative-log IC50 (pIC50) was above 7.00. Consider `Cn1cc(-n2ccc(=O)c(COc3ccc4nccnc4c3)n2)cn1` [Example 11, 1-(1-methyl-1H-pyrazol-4-yl)-3-[(quinoxalin-6-yloxy)methyl] pyridazin-4(1H)-one], for which the negative-log IC50 (pIC50) is above 7.00.

Regarding `CCOC(=O)c1ccc(OCc2nn(-c3cnn(C)c3)ccc2=O)cc1` [Example 12, ethyl 4-{[1-(1-methyl-1H-pyrazol-4-yl)-4-oxo-1,4-dihydropyridazin-3-yl]methoxy}benzoate], the pIC50 is 6.00 to 7.00. To `Cc1ccc2cc(OCc3nn(-c4cnn(C)c4)ccc3=O)ccc2n1` [Example 13] belongs 6.00 to 7.00; to `Cn1cc(-n2ccc(=O)c(COc3ccc4nc(C#N)sc4c3)n2)cn1` [Example 14, 6-{[1-(1-methyl-1H-pyrazol-4-yl)-4-oxo-1,4-dihydropyridazin-3-yl]methoxy}-1,3-benzothiazole-2-carbonitrile], 5.52 to 6.00. To `Cn1cc(C(=O)Nc2cccc(OCc3nn(-c4cnn(C)c4)ccc3=O)c2)cn1` [Example 15, 1-Methyl-N-(3-{[1-(1-methyl-1H-pyrazol-4-yl)-4-oxo-1,4-dihydropyridazin-3-yl]methoxy}phenyl)-1H-pyrazole-4-carboxamide] belongs 5.52 to 6.00.
